Measurements from patent publication US20150376198A1, “MODULATORS OF VASOPRESSIN RECEPTORS WITH THERAPEUTIC POTENTIAL” (priority 2013, published 2015).

Target: human Arginine Vasopressin Receptor 1a (AVPR1a) (Homo sapiens, UniProt P37288)
Assay: cell-based
Details: not given

Sequence of human Arginine Vasopressin Receptor 1a (AVPR1a) (P37288 whole entry): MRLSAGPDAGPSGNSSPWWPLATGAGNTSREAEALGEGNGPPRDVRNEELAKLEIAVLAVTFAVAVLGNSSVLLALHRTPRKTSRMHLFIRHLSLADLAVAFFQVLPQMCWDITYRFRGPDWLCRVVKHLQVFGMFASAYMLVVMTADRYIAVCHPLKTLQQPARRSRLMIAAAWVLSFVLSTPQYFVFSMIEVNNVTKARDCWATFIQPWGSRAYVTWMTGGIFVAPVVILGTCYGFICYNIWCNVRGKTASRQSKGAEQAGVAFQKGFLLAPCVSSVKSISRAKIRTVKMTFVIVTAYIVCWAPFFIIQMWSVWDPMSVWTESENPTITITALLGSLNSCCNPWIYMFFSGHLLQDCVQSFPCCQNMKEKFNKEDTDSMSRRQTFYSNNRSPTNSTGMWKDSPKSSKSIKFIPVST

Compound | IC50
N#CC1(c2ccccc2)CCN(C(=O)N2CCCCc3cc(Cl)ccc32)CC1 [Compound 134] | 358 nM
O=C(C1CCN(c2ncccc2F)CC1)N(CC1CC1)c1ccc(Cl)cc1 [Compound 140] | 15 nM
O=C(C1CCN(c2ccc(Cl)cn2)CC1)N(CC1CC1)c1ccc(Cl)cc1 [Compound 141] | 40 nM
O=C(C1CCN(c2ccc(F)cn2)CC1)N(CC1CC1)c1ccc(Cl)cc1 [Compound 146] | 24 nM
Cc1ccc(N2CCC(C(=O)N(CC3CC3)c3ccc(Cl)cc3)CC2)nc1 [Compound 149] | 20 nM

Same assay, conditions: read-out: V1a-R IC50

Compound | IC50
CCC(CC)C(=O)N1CCC(C(=O)N2CCCCc3cc(Cl)ccc32)CC1 [Compound 79] | 5400 nM
Cc1noc(C)c1C(=O)N1CCC(C(=O)N2CCCCc3cc(Cl)ccc32)CC1 [Compound 80] | 15100 nM
O=C(C1CCN(C(=O)C23CC4CC(CC(C4)C2)C3)CC1)N1CCCCc2cc(Cl)ccc21 [Compound 81] | 8080 nM
CC(C)(C)C(=O)N1CCC(C(=O)N2CCCCc3cc(Cl)ccc32)CC1 [Compound 82] | 2490 nM
O=C(c1ccccc1)N1CCC(C(=O)N2CCCCc3cc(Cl)ccc32)CC1 [Compound 83] | 1820 nM
O=C(c1ccccc1F)N1CCC(C(=O)N2CCCCc3cc(Cl)ccc32)CC1 [Compound 84] | 1490 nM
COc1ccc(C(=O)N2CCC(C(=O)N3CCCCc4cc(Cl)ccc43)CC2)cc1 [Compound 85] | 1780 nM
O=C(c1ccc(Cl)cc1)N1CCC(C(=O)N2CCCCc3cc(Cl)ccc32)CC1 [Compound 86] | 835 nM
O=C(c1ccc(C(F)(F)F)cc1)N1CCC(C(=O)N2CCCCc3cc(Cl)ccc32)CC1 [Compound 87] | 1870 nM
O=C(c1cccc(C(F)(F)F)c1)N1CCC(C(=O)N2CCCCc3cc(Cl)ccc32)CC1 [Compound 88] | 595 nM
O=C(c1ccc(Cl)cc1Cl)N1CCC(C(=O)N2CCCCc3cc(Cl)ccc32)CC1 [Compound 89] | 1800 nM
O=C(c1ccc(F)c(F)c1)N1CCC(C(=O)N2CCCCc3cc(Cl)ccc32)CC1 [Compound 90] | 1520 nM
O=C(c1cccc(F)c1F)N1CCC(C(=O)N2CCCCc3cc(Cl)ccc32)CC1 [Compound 91] | 1860 nM
O=C(c1c(F)cccc1F)N1CCC(C(=O)N2CCCCc3cc(Cl)ccc32)CC1 [Compound 92] | 1720 nM
O=C(c1ccncc1)N1CCC(C(=O)N2CCCCc3cc(Cl)ccc32)CC1 [Compound 93] | 5810 nM
O=C(C1CCN(c2ccccn2)CC1)N1CCCCc2cc(Cl)ccc21 [Compound 109] | 5 nM
O=C(C1CCN(c2ncccn2)CC1)N1CCCCc2cc(Cl)ccc21 [Compound 110] | 207 nM
N#Cc1cccnc1N1CCC(C(=O)N2CCCCc3cc(Cl)ccc32)CC1 [Compound 111] | 130 nM
N#Cc1ccc(N2CCC(C(=O)N3CCCCc4cc(Cl)ccc43)CC2)nc1 [Compound 112] | 1230 nM

Compound | IC50
N#Cc1ccc(C(=O)N2CCC(C(=O)N3CCCCc4cc(Cl)ccc43)CC2)cc1 [Compound 113] | 5760 nM
N#Cc1ccc(C(=O)N2CCC(C(=O)N3CCCCc4cc(Cl)ccc43)CC2)c(F)c1 [Compound 114] | 9480 nM
N#Cc1cc(C(=O)N2CCC(C(=O)N3CCCCc4cc(Cl)ccc43)CC2)ccc1F [Compound 115] | 5280 nM
O=C(c1cc(F)cc(F)c1)N1CCC(C(=O)N2CCCCc3cc(Cl)ccc32)CC1 [Compound 116] | 1600 nM
Cc1cncc(C(=O)N2CCC(C(=O)N3CCCCc4cc(Cl)ccc43)CC2)c1 [Compound 117] | 1160 nM
CS(=O)(=O)c1ccc(C(=O)N2CCC(C(=O)N3CCCCc4cc(Cl)ccc43)CC2)cc1 [Compound 118] | 12900 nM
O=C(c1csc2ccccc12)N1CCC(C(=O)N2CCCCc3cc(Cl)ccc32)CC1 [Compound 119] | 621 nM
O=C(c1c[nH]c2ccccc12)N1CCC(C(=O)N2CCCCc3cc(Cl)ccc32)CC1 [Compound 120] | 249 nM
O=C(c1cc2ccccc2[nH]1)N1CCC(C(=O)N2CCCCc3cc(Cl)ccc32)CC1 [Compound 121] | 446 nM
O=C(N1CCN(c2ccccn2)CC1)N1CCCCc2cc(Cl)ccc21 [Compound 122] | 80 nM
O=C(N1CCN(c2ncccn2)CC1)N1CCCCc2cc(Cl)ccc21 [Compound 123] | 256 nM
Cc1cccnc1N1CCN(C(=O)N2CCCCc3cc(Cl)ccc32)CC1 [Compound 124] | 40 nM
O=C(N1CCN(c2ncccc2Cl)CC1)N1CCCCc2cc(Cl)ccc21 [Compound 125] | 57 nM
O=C(N1CCN(c2ncccc2C(F)(F)F)CC1)N1CCCCc2cc(Cl)ccc21 [Compound 126] | 54 nM
O=C(N1CCN(c2nccs2)CC1)N1CCCCc2cc(Cl)ccc21 [Compound 127] | 267 nM
O=C(N1CCN(c2ccccc2)CC1)N1CCCCc2cc(Cl)ccc21 [Compound 128] | 27 nM
O=C(N1CCN(c2cc(Cl)cc(Cl)c2)CC1)N1CCCCc2cc(Cl)ccc21 [Compound 129] | 205 nM
Cc1ccc(Cl)cc1N1CCN(C(=O)N2CCCCc3cc(Cl)ccc32)CC1 [Compound 130] | 279 nM
O=C(N1CCC(c2ccccc2)CC1)N1CCCCc2cc(Cl)ccc21 [Compound 131] | 83 nM

Compound | IC50
O=C(N1CCN(c2ccc(C(F)(F)F)cc2)CC1)N1CCCCc2cc(Cl)ccc21 [Compound 132] | 29 nM
O=C(N1CCC(O)(c2ccccc2)CC1)N1CCCCc2cc(Cl)ccc21 [Compound 133] | 137 nM
O=C(N1CCN(c2ccccc2Cl)CC1)N1CCCCc2cc(Cl)ccc21 [Compound 139] | 35 nM
N#Cc1cccnc1N1CCC(C(=O)N(CC2CC2)c2ccc(Cl)cc2)CC1 [Compound 142] | 67 nM
O=C(C1CCN(c2ncccc2C(F)(F)F)CC1)N(CC1CC1)c1ccc(Cl)cc1 [Compound 143] | 84 nM
O=C(C1CCN(c2ncccc2Cl)CC1)N(CC1CC1)c1ccc(Cl)cc1 [Compound 144] | 23 nM
O=C(C1CCN(c2ccc(C(F)(F)F)cn2)CC1)N(CC1CC1)c1ccc(Cl)cc1 [Compound 145] | 123 nM
Cc1cccnc1N1CCC(C(=O)N(CC2CC2)c2ccc(Cl)cc2)CC1 [Compound 147] | 7 nM
Cc1ccnc(N2CCC(C(=O)N(CC3CC3)c3ccc(Cl)cc3)CC2)c1 [Compound 148] | 3 nM
Cc1cccc(N2CCC(C(=O)N(CC3CC3)c3ccc(Cl)cc3)CC2)n1 [Compound 150] | 23 nM
Cc1cc(C)nc(N2CCC(C(=O)N(CC3CC3)c3ccc(Cl)cc3)CC2)n1 [Compound 151] | 8 nM
O=C(C1CCN(c2cnccn2)CC1)N(CC1CC1)c1ccc(Cl)cc1 [Compound 152] | 45 nM
N#Cc1ccc(N2CCC(C(=O)N(CC3CC3)c3ccc(Cl)cc3)CC2)nc1 [Compound 153] | 800 nM
O=C(C1CCN(c2ccccn2)CC1)N(CC1CC1)c1ccc(Cl)cc1 [Compound 154] | 15 nM
O=C(N1CCN(c2ncc(F)cn2)CC1)N(CC1CC1)c1ccc(Cl)cc1 [Compound 155] | 106 nM
Cc1cnc(N2CCN(C(=O)N(CC3CC3)c3ccc(Cl)cc3)CC2)nc1 [Compound 156] | 17 nM
O=C(N1CCN(c2ncc(Cl)cn2)CC1)N(CC1CC1)c1ccc(Cl)cc1 [Compound 157] | 206 nM
Cc1cc(C)nc(N2CCN(C(=O)N(CC3CC3)c3ccc(Cl)cc3)CC2)n1 [Compound 158] | 24 nM
N#Cc1cccnc1N1CCN(C(=O)N(CC2CC2)c2ccc(Cl)cc2)CC1 [Compound 159] | 81 nM
